Data from patent US11845726B2.
pEC50, pIC50, pKi: −log10 of the molar value. Values joined by “and” are separate entries in the source; they are usually repeats but may differ in a detail not shown here. Identical values can stand only once. “Also recorded” adds a separate entry of the source.

How the values were obtained:
[1] = in vitro; assay type: in vitro ADME, human; details: for half-life: human
Source text: A fundamental evaluation in drug development is the assessment of absorption, distribution, metabolism, excretion, and pharmacokinetics (ADME/PK) (Eddershaw et al., 2000, Drug Discovery Today 5(9): 409-414). […] Drug stability upon exposure to human liver microsomes and liver S9 cellular fractions is a common in vitro assay to approximate in vivo, liver-based drug metabolism (Richardson et al., 2016 Drug Metabolism Letters 10:83-90). First-pass metabolism is also often approximated in vitro using intestinal microsome and cellular S9 fractions (Hatley et al., 2017, Biopharmaceuticals & Drug Disposition, 38(2):155-160). Further, it is well known that human serum, and particularly circulating serum esterases can contribute to systemic drug metabolism (Williams, F M 1987, Pharmacology and Therapeutics, 34:99-109). Many pharmacological agents are classified as prodrugs, as they undergo metabolic transformation in vivo upon administration to release the active drug compound into the systemic compartment (Zawilska J B, et al. 2013, Pharmacological Reports, 65:1-14). Psilocybin, a serotonergic psychedelic agent, is well known prodrug that is metabolized into the psychoactive product, psilocin (Dinis-Oliveira, R J 2017, Drug Metabolism Reviews, 49(1):84-91). To evaluate the capacity of test molecules to similarly serve as prodrugs of psilocin, time-dependent, metabolic stability assays using human AB serum, human intestinal microsomes (HIM), human intestinal S9 fractions (HIS9), human liver microsomes (HLM), human liver S9 fractions (HLS9), human alkaline phosphatase, and porcine esterase were performed. […] Liquid chromatography coupled mass spectrometry (LC-MS) was employed to track the conversion of the test molecules into psilocin. All intestinal and liver fractions and NADPH RapidStart reagent was purchased from Sekisui/XenoTech. Human AB serum was purchased from Sigma. For intestine and liver metabolism assays, 2.5 μM candidate compounds were incubated in 400 μg/ml of each cellular fraction (HLM, HLS9, HIM, or HIS9) in 50 mM potassium phosphate buffer (pH 7.4) containing 3 mM MgCl2 and 1 mM EDTA supplemented with NADPH RapidStart at 37° C. Samples were taken at the start of the assay, and at every 20 minutes for 2 hours. Time-point samples were precipitated with 1:1 volume of acetonitrile to quench the reaction before centrifugation at 4000×g for 20 minutes. Supernatants were analyzed for the presence of candidate prodrugs (parent molecule) and psilocin (the predicted metabolite) using Orbitrap LC-MS (Thermo Scientific) using previously described methods (Menéndez-Perdomo et al., 2021, J. Mass Spectrom., 56: e4683). The serum assays were carried out in 10% human AB serum in 50 mM potassium phosphate buffer (pH 7.4) containing 3 mM MgCl2 and 1 mM EDTA. Bovine alkaline phosphatase assays were carried out using one unit of purified enzyme in 50 mM potassium phosphate buffer (pH 7.4) containing 3 mM MgCl2 and 1 mM EDTA. Porcine esterase assays were carried out using one unit of purified enzyme in 50 mM potassium phosphate buffer (pH 7.4) containing 3 mM MgCl2 and 1 mM EDTA. Assay concentrations (μM) of both parent ‘prodrug’ molecule and psilocin metabolite, as quantified through LC-MS using routine standard curve procedures, were plotted as functions of assay time (minutes). The metabolism rate (T1/2) was determined from the metabolism curve plot using the one phase decay feature of GraphPad PRISM software (Version 9.2.0). The quantity of parent prodrug at time zero was set as 100%.
Positive controls were first tested to ensure that assays were functioning properly.

[2] = test system: HepG2 cells; assay: PrestoBlue cell viability assay; details: 48 hours
[3] = biological target: T1, 5-HT2A receptor (Mus musculus, UniProt P35363); assay: Drug-induced Head Twitch Response (HTR); assay type: in vivo, mice; details: 1 mg/kg i.p., 15-to-30-minute window after administration
T1 construct: tissue Charles River; host or cells: living C57BL/6-Elite mice (neuronal receptor)
T1 sequence (P35363 whole entry): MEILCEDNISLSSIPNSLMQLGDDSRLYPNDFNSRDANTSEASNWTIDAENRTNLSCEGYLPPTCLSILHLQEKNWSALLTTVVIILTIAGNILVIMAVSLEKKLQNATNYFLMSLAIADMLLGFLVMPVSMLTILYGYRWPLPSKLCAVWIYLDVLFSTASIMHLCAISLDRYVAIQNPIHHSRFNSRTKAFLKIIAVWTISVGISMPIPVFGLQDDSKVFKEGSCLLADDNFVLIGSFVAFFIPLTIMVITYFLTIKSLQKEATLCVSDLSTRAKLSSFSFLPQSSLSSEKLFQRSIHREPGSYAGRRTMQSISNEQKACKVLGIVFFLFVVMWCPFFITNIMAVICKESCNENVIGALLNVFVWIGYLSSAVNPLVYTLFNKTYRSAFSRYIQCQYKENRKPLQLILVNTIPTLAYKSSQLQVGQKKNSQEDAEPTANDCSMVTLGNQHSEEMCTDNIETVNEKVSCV

[4] = In vitro metabolic stability / psilocin release in AB serum; assay type: in vitro ADME, human
Source text: A fundamental evaluation in drug development is the assessment of absorption, distribution, metabolism, excretion, and pharmacokinetics (ADME/PK) (Eddershaw et al., 2000, Drug Discovery Today 5(9): 409-414). […] Drug stability upon exposure to human liver microsomes and liver S9 cellular fractions is a common in vitro assay to approximate in vivo, liver-based drug metabolism (Richardson et al., 2016 Drug Metabolism Letters 10:83-90). First-pass metabolism is also often approximated in vitro using intestinal microsome and cellular S9 fractions (Hatley et al., 2017, Biopharmaceuticals & Drug Disposition, 38(2):155-160). Further, it is well known that human serum, and particularly circulating serum esterases can contribute to systemic drug metabolism (Williams, F M 1987, Pharmacology and Therapeutics, 34:99-109). Many pharmacological agents are classified as prodrugs, as they undergo metabolic transformation in vivo upon administration to release the active drug compound into the systemic compartment (Zawilska J B, et al. 2013, Pharmacological Reports, 65:1-14). Psilocybin, a serotonergic psychedelic agent, is well known prodrug that is metabolized into the psychoactive product, psilocin (Dinis-Oliveira, R J 2017, Drug Metabolism Reviews, 49(1):84-91). […] Supernatants were analyzed for the presence of candidate prodrugs (parent molecule) and psilocin (the predicted metabolite) using Orbitrap LC-MS (Thermo Scientific) using previously described methods (Menéndez-Perdomo et al., 2021, J. Mass Spectrom., 56: e4683). […] Assay concentrations (μM) of both parent ‘prodrug’ molecule and psilocin metabolite, as quantified through LC-MS using routine standard curve procedures, were plotted as functions of assay time (minutes). The metabolism rate (T1/2) was determined from the metabolism curve plot using the one phase decay feature of GraphPad PRISM software (Version 9.2.0). The quantity of parent prodrug at time zero was set as 100%. […]

[5] = biological target: 5-HT2A receptor (Homo sapiens, UniProt P28223); assay: [3H]ketanserin competition binding assay (SPA); details: for 5-HT2A competition binding: control ligands, [3H]ketanserin competition
Chain of 5-HT2A receptor (Homo sapiens, UniProt P28223) (P28223 whole entry): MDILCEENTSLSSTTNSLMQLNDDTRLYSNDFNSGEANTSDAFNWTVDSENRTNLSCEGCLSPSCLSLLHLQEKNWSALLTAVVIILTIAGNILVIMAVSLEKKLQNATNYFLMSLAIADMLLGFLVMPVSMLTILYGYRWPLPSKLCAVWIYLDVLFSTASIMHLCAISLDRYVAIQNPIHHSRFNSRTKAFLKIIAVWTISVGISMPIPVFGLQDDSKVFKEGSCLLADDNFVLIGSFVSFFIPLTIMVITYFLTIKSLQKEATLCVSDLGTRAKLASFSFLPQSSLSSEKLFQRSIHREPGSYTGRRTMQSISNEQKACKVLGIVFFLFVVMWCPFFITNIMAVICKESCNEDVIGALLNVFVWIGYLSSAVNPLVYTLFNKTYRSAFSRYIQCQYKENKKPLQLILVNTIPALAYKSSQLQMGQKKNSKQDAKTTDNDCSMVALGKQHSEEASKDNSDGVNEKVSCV

[6] = biological target: T2, 5-HT1A receptor (Homo sapiens, UniProt P08908); assay: cAMP-Glo assay of 5-HT1A receptor modulation in +5-HT1A and -5-HT1A CHO-K1 cells; assay type: cell-based; details: for cAMP levels / 5-HT1A receptor modulation: forskolin-stimulated +5-HT1A vs -5-HT1A cells
T2 construct: host or cells: CHO-K1 co-expressing Ga15
T2 sequence (P08908 1-422): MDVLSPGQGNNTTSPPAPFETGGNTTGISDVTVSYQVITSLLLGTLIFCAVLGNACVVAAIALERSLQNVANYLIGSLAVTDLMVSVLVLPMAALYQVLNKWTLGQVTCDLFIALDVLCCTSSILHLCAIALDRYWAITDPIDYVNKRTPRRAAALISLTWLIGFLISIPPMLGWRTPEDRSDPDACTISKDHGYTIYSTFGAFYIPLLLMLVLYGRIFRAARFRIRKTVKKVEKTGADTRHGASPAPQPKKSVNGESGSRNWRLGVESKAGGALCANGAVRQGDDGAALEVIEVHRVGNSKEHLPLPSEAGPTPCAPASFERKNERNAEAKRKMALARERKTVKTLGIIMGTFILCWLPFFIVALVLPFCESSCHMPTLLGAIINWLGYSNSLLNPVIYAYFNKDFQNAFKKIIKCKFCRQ

[7] = Mouse pharmacokinetic (PK) evaluation of drug metabolism to psilocin; details: for administered compound in plasma after oral dosing: any dose
[8] = test system: GABAA; assay type: cell-based
[9] = Stability in enzyme-free control buffer; assay type: in vitro ADME; details: assay buffer without enzymes
Source text: A fundamental evaluation in drug development is the assessment of absorption, distribution, metabolism, excretion, and pharmacokinetics (ADME/PK) (Eddershaw et al., 2000, Drug Discovery Today 5(9): 409-414). […] Drug stability upon exposure to human liver microsomes and liver S9 cellular fractions is a common in vitro assay to approximate in vivo, liver-based drug metabolism (Richardson et al., 2016 Drug Metabolism Letters 10:83-90). First-pass metabolism is also often approximated in vitro using intestinal microsome and cellular S9 fractions (Hatley et al., 2017, Biopharmaceuticals & Drug Disposition, 38(2):155-160). […] Supernatants were analyzed for the presence of candidate prodrugs (parent molecule) and psilocin (the predicted metabolite) using Orbitrap LC-MS (Thermo Scientific) using previously described methods (Menéndez-Perdomo et al., 2021, J. Mass Spectrom., 56: e4683). […] Assay concentrations (μM) of both parent ‘prodrug’ molecule and psilocin metabolite, as quantified through LC-MS using routine standard curve procedures, were plotted as functions of assay time (minutes). The metabolism rate (T1/2) was determined from the metabolism curve plot using the one phase decay feature of GraphPad PRISM software (Version 9.2.0). The quantity of parent prodrug at time zero was set as 100%.

[10] = 1 mg/kg i.v., 0.25 h, Mean ± SD
[11] = 1 mg/kg i.v., 1 h, individual mice
[12] = 1 mg/kg i.v., 2 h, individual mice
[13] = 1 mg/kg i.v., 4 h, individual mice
[14] = 1 mg/kg i.v., 6 h, individual mice
[15] = 1 mg/kg i.v., 8 h, individual mice
[16] = 3 mg/kg oral, 24 h, individual mice

Row | Structure (SMILES) | stability / conversion to psilocin ([1]; HLM) | stability / conversion to psilocin ([1]; HLS9) | CD50 (cytotoxicity) [2] | Head Twitch Response [3] | stability / conversion to psilocin [4] | pKi [5] | cAMP levels / 5-HT1A receptor modulation [6] | administered compound in plasma after i.v. dosing ([7]; 1 mg/kg i.v.) | Plasma concentration of the administered compound itself ([7]; 1 mg/kg i.v., 5 min, Mean ± SD) | Plasma concentration of the administered compound itself [7, 10] | Plasma concentration of the administered compound itself ([7]; 1 mg/kg i.v., 0.5 h, Mean ± SD) | Plasma concentration of the administered compound itself ([7]; 1 mg/kg i.v., 1 h, Mean ± SD) | Plasma concentration of the administered compound itself [7, 11] | Plasma concentration of the administered compound itself [7, 12] | Plasma concentration of the administered compound itself [7, 13] | Plasma concentration of the administered compound itself [7, 14] | Plasma concentration of the administered compound itself [7, 15] | Plasma concentration of psilocin [7, 16] | administered compound in plasma after oral dosing [7] | 5-HT2A competition binding [5] | other results
1 | CN(C)CCc1c[nH]c2cccc(OC(=O)OCc3ccccc3)c12 [B(II)] | did not readily dissociate to psilocin | did not readily dissociate to psilocin | 65.9 µM | elicit head twitching | failed completely to dissociate | 6.56 |  |  |  |  |  |  |  |  |  |  |  |  |  |  | half-life ([1]; microsomes, pH 7.4): 3.63 h; half-life ([1]; s9, pH 7.4): 8.95 h; EC50 at 5-HT1A ([6]; forskolin-stimulated +5-HT1A cells): neither molecule engaged 5-HT1A with sufficient potency to calculate an EC50 value; time administered compound resides in plasma post-dosing ([7]; 10 mg/kg oral): up to 4 hours
2 | CN(C)CCc1c[nH]c2cccc(OC(=O)SCc3ccccc3)c12 [E(VI)] | quickly converted to psilocin | quickly converted to psilocin | 74.5 µM | Elevated incidences of HTR; also recorded: elevated response was observed in mice treated with E(VI) compared to B(II) | quickly converted to psilocin; also recorded: nearly completely disappears upon in vitro exposure to AB serum | 6.89 | mild receptor modulation at higher ligand concentrations | detectable levels of E(VI) | 24.4 ± 30.2 ng/mL | 63.3 ± 51.7 ng/mL | 7.81 ± 6.17 ng/mL | 4.49 (n = 2) ng/mL | 3.14 ng/mL and No Peak | 0.776 ng/mL and No Peak | BLQ (2×) and No Peak | No Peak (2×) and BLQ | No Peak | No Peak (2×) and BLQ | did not yield any detectable levels of E(VI); also recorded: never detected at any timepoint |  | pIC50 ([8]; blocker (BL)): 4.49; pEC50 ([8]; opener (OP)): < 4.00; Plasma concentration of the administered compound itself ([7]; 1 mg/kg i.v., 2 h, Mean ± SD): 0.685 (n = 2) ng/mL; AUC0-tlast of the administered compound ([7]; 1 mg/kg i.v., Mean ± SD): 19.7 ± 15.9 ng·h/mL; AUC0-tlast/Dose of the administered compound ([7]; 1 mg/kg i.v., Mean ± SD): 19.7 ± 15.9 kg·ng·h/mL/mg; AUC0-tlast/Dose of the administered compound ([7]; 1 mg/kg i.v., individual mice): 20.4 kg·ng·h/mL/mg and 35.2 kg·ng·h/mL/mg and 3.40 kg·ng·h/mL/mg; administered compound in plasma ([7]; 1 mg/kg oral): neither B(II) nor E(VI) were detected in plasma; Plasma concentration of psilocin ([7]; 1 mg/kg oral, 8 h, individual mice): BLQ; Plasma concentration of psilocin ([7]; 1 mg/kg oral, 24 h, individual mice): No Peak; Plasma concentration of psilocin ([7]; 10 mg/kg oral, 24 h, individual mice): BLQ
3 | CN(C)CCc1c[nH]c2cccc(O)c12 [psilocin] |  |  |  |  |  |  | reduction in cAMP levels |  |  |  |  |  |  |  |  |  |  |  |  | binding | 
4 | CN(C)CCc1c[nH]c2cccc(OP(=O)(O)O)c12 [psilocybin] | stable in liver fractions with no conversion to psilocin | stable in liver fractions with no conversion to psilocin |  |  | stable in serum with no conversion to psilocin |  |  | only detectable in i.v. administered animals | 144 ± 167 ng/mL | 13.2 ± 12.5 ng/mL | 4.28 (n = 2) ng/mL | 1.21 (n = 1) ng/mL | No Peak (2×) and 1.21 ng/mL | No Peak | No Peak | No Peak | No Peak (2×) and 2.54 ng/mL | BLQ | not detectable in orally administered animals at any dose |  | stability [9]: stability of psilocybin was confirmed in assay buffer; Plasma concentration of the administered compound itself ([7]; 1 mg/kg i.v., 5 min, individual mice): 19.7 ng/mL and 76.8 ng/mL and 334 ng/mL; Plasma concentration of the administered compound itself ([7]; 1 mg/kg i.v., 0.25 h, individual mice): 3.32 ng/mL and 8.95 ng/mL and 27.2 ng/mL; Plasma concentration of the administered compound itself ([7]; 1 mg/kg i.v., 0.5 h, individual mice): No Peak and 2.35 ng/mL and 6.21 ng/mL; Plasma concentration of psilocin ([7]; 1.56 mg/kg oral, 24 h, individual mice): BLQ
5 | NCCc1c[nH]c2ccc(O)cc12 [serotonin] |  |  |  |  |  |  | reduction in cAMP levels |  |  |  |  |  |  |  |  |  |  |  |  |  | 
6 | N[C@@H](Cc1c[nH]c2ccccc12)C(=O)O [tryptophan] |  |  |  |  |  |  | no reduction in cellular cAMP levels |  |  |  |  |  |  |  |  |  |  |  |  | no binding | 
